Experimental findings from patent US7923465B2, “Cannabinoid receptor ligands, pharmaceutical compositions containing them, and process for their preparation” (priority 2005, dated 2011) are described below.

Where two headings read alike, the source gives them in different places.

For data set [1], the target named is T1, hCB1 (Homo sapiens, UniProt P21554). The data set can be described thus: Antagonism of CB1 receptors expressed in CHO cells, cAMP assay against CP 55,940 (Protocol IX.1). Type of data set: cell-based. Also noted: expressed in transfected cells; host or cells: CHO (h-CB1/CHO, G418-selected). As to conditions: at 10 uM, h-CB1/CHO cells, cAMP, vs 30 nM CP 55,940; read-out: hCB1 Antagonism. On the procedure: (§1) IX. Assay for Determining Agonist and Antagonist Activity to CB1 and CB2 Receptors
1. Antagonism of CB1/CB2 Receptors Expressed in CHO Cells.
h-CB1/CHO or h-CB2/CHO cells were grown in HAM's F12 DMEM medium (Sigma) with 10% FBS (Hyclone), 1% penicillin-streptomycin solution and 400 μg/ml of G418 (Sigma). 5000 cells were seeded per well in a 96 well plate and incubated for 24 hours at 37° C. in 5% CO2. On the day of assay, cells were washed with warm Krebs buffer containing 0.1% fatty acid free (FAF) BSA (Sigma) and re-suspended in the same buffer containing 1 mM IBMX. […] At the end of incubation, cells were lysed using lysis reagent from the cAMP estimation kit and cAMP was quantitated by the chemiluminescence method described in the manufacturer's instructions (DiscoveRX). EC50 values were calculated from dose response curves by nonlinear regression analysis using PRISM software.
A general note: cAMP levels reflect the balance of adenylyl cyclase and phosphodiesterase activity.

Data set [2] concerns the target T2, CB1 (Rattus norvegicus, UniProt P20272). Briefly: GTPγS binding assay, CB1 functional assay in rat cerebellar membrane (Protocol VIII). Format: biochemical. More on the design: 10 μg rat cerebellum membrane; from tissue; host or cells: rat cerebellum membrane, prepared in-house. In outline: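 Rat cerebellar membranes (10 μg) incubated 1 h at 30 °C with 0.2 nM [35S]GTPγS, 50 μM GDP, and compound at 1 μM or 300 nM, alone or with 1 μM WIN 55,212-2, in Tris/MgCl2/EGTA/NaCl pH 7.4. Filter-bound radioactivity counted; percent stimulation calculated against basal specific binding (nonspecific defined by 10 μM GTPγS).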
On the technique in general: GTPγS is a poorly hydrolysed GTP analogue; its binding reports G protein activation.

Data set [3] addresses T2, CB1. Briefly: Rat CB1 receptor binding using brain membrane, [3H]SR141716A displacement (Protocol I). Also noted: CB1 receptor present in a rat brain membrane preparation; from tissue; host or cells: rat brain membrane; inhibition: dose or concentration left out as unconfirmed. As to conditions: for inhibition: 1 h.
For data set [4], the target named is T1, hCB1. Briefly: In vitro binding assay using hCB1-CHO membranes, [3H]-CP-55,940 displacement (Protocol II). Also noted: expressed in transfected cells; host or cells: CHO (hCB1-CHO, generated in-house). The procedure, abridged:
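Incubated 1 h at 37° C, stopped by rapid vacuum filtration on PEI-precoated GF/B filters, bound radioactivity counted by liquid scintillation.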

The target in data set [5] is T3, hCB2 (Homo sapiens, UniProt P34972). Briefly: In vitro binding assay using hCB2-CHO membranes, [3H]-CP-55,940 displacement (Protocol IV). As to conditions: for % Displacement Protocol IV: hCB2-CHO membranes, [3H]-CP-55,940 displacement. Also noted: expressed in transfected cells; host or cells: CHO (hCB2-CHO, generated in-house). The procedure, abridged:
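Compounds were tested at a single 300 nM final concentration for displacing 0.75 nM [3H]-CP-55,940 from hCB2-CHO membranes (1 h, 30 °C, 50 mM Tris pH 7.4, 5 mM MgCl2, 1 mM EDTA, 0.1% BSA). Filter-bound radioactivity was counted, with 0.5 μM unlabelled CP-55,940 for nonspecific binding; results are % displacement.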

In data set [6] the target is T3, hCB2. The data set can be described thus: Agonism of CB2 receptors expressed in CHO cells, forskolin cAMP assay (Protocol IX.2). Type of data set: cell-based. Also noted: expressed in transfected cells; host or cells: CHO (h-CB2/CHO, G418-selected). As for the experimental part: as §1
2. Agonism of CB1/CB2 Receptors Expressed in CHO Cells
h-CB1/CHO or h-CB2/CHO cells were grown in HAM's F12 DMEM medium (Sigma) with 10% FBS (Hyclone), 1% penicillin-streptomycin solution and 400 μg/ml of G418 (Sigma). 5000 cells were seeded per well in a 96 well plate and incubated for 24 hours at 37° C. in 5% CO2. On the day of assay, cells were washed with warm Krebs Buffer containing 0.1% fatty acid free (FAF) BSA (Sigma) and re-suspended in the same buffer containing 1 mM IBMX. Test compound or CP 55,940 as a reference compound (30 nM final concentration for CB1 testing and 10 μM of the same for CB2 testing) diluted in FFB+IBMX+Krebs buffer was added to the cells followed by forskolin addition (10 uM final concentration) and incubated for 30 minutes at room temperature. At the end of incubation, cells were lysed using lysis reagent from the cAMP estimation kit and cAMP was quantitated by chemiluminescence method described in the manufacturer's instructions (DiscoveRX). EC50 values were calculated from dose response curves by nonlinear regression analysis using PRISM software.

Setting [7] is: GTPγS binding over basal, rat cerebellar membrane, tested at 1 uM.
Setting [8] is: GTPγS binding, tested at 1 uM in presence of 1 μM WIN 55,212-2.
The mark [9] stands for this setting: read-out: % Displacement Protocol I, rat brain membrane, [3H]SR141716A displacement.
Where [10] appears, read: rat brain membrane, [3H]SR141716A displacement, read-out: % Displacement Protocol I.
[11] abbreviates: rat brain membrane, [3H]SR141716A displacement.

T3 sequence (P34972 whole entry): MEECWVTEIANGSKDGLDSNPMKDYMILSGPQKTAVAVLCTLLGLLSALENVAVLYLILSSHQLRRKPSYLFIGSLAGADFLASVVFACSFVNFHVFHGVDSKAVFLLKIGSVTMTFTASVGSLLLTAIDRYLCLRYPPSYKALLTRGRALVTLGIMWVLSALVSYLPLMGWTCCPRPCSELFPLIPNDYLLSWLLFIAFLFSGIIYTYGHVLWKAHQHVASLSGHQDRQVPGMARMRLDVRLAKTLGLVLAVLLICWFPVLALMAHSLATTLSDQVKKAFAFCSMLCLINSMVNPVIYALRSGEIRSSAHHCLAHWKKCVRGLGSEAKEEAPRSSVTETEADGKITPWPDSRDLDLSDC
T2 sequence (P20272 whole entry): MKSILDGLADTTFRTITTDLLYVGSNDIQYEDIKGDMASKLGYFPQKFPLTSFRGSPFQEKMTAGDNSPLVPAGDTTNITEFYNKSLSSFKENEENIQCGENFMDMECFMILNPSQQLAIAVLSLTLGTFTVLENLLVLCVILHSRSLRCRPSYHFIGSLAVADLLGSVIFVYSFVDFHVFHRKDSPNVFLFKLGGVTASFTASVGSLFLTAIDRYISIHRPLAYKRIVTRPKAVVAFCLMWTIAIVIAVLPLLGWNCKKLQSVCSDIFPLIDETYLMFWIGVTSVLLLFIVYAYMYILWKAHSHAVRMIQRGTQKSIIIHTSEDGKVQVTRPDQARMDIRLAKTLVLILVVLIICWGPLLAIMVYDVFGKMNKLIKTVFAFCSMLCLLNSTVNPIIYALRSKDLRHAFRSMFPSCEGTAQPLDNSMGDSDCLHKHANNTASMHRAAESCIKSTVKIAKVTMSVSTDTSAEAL
T1 sequence (P21554 whole entry): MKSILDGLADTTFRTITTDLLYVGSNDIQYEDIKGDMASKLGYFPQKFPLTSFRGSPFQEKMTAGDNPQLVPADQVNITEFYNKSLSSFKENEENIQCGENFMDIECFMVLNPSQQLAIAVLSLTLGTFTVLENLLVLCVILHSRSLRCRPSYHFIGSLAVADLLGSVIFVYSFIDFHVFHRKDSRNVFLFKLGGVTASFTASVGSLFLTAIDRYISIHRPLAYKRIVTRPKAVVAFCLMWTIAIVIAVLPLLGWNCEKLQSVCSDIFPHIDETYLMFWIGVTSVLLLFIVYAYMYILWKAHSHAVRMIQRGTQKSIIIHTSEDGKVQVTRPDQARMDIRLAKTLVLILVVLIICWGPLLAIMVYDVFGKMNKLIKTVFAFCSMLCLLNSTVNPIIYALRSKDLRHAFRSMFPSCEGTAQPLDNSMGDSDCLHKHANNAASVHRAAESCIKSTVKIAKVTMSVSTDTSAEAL

With `Cl.O=C(NNc1ccccc1)c1nn(-c2ccc(Cl)cc2)c2c1C1CC3CC(C1)CC2C3` [Example 122, N(7)-(N′-phenylamino)-5-(4-chlorophenyl)-5,6-diazatetracyclo[7.3.1.1^3,11.0^4,8]tetradeca-4(8),6-diene-7-carboxamide hydrochloride], the inhibition at 10 µM on hCB1 [1] came to 40.7%. The “Per Se % Stimulation” value at CB1 [2] (setting [7]) amounted to 1.2%. The “% Inhibition of WIN-55212-2 induced stimulation” value (“% Inhibition” for short) on CB1 [2] (setting [8]) is reported as 59.3%. Moreover, the inhibition at CB1 [3] (setting [9]) was 66.4%.
One may read the melting point as the temperature, or range, at which the solid turns liquid. `O=C(NNc1ccc(F)cc1F)c1nn(-c2ccc(Cl)cc2)c2c1C1CCC2C1` (stereo not drawn) [Example 235, N(3)-[(2,4-Difluorophenyl)amino]-1-(4-chlorophenyl)-4,5,6,7-tetrahydro-1H-4,7-methano-indazole-3-carboxamide] yielded a melting point of 118 to 120 °C. The inhibition at 10 µM at hCB1 [1] was determined as 59.9%. Besides, the inhibition on CB1 [3] (setting [10]) worked out at 46.8%.
Consider `O=C(NCc1ccc(F)cc1)c1nn(-c2ccc(Cl)cc2)c2c1C1CCC2C1` (stereo not drawn) [Example 226, N(3)-(4-Fluorobenzyl)-1-(4-chlorophenyl)-4,5,6,7-tetrahydro-1H-4,7-methano-indazole-3-carboxamide], for which the melting point was in the range of 104 to 107 °C. The inhibition at 10 µM on hCB1 [1] came to 71%. The inhibition at CB1 [3] (setting [10]) was 38.4%.
On to `O=C(NC1CCCCC1)c1nn(-c2ccccc2Cl)c2c1C1CC3CC(C1)CC2C3` [Example 183, N(7)-cyclohexyl-5-(2-chlorophenyl)-5,6-diazatetracyclo[7.3.1.1^3,11.0^4,8]tetradeca-4(8)-6-diene-7-carboxamide], for which, on hCB1 [4], the “% Displacement Protocol II” value was found to be 17.24%. At hCB2 [5], the “% Displacement Protocol IV” value amounted to 18.23%. The “Per Se % Stimulation” value at CB1 [2] (setting [7]) stood at 13.0%. In addition, at CB1 [2] (setting [8]), the “% Inhibition” value amounted to 72.5%. On CB1 [3] (setting [11]), the “% Displacement Protocol I” value came out at 45.9%.
Turning to `C[C@H](NC(=O)c1nn(-c2ccc(Cl)cc2Cl)c2c1C1CCC2C1)c1ccccc1` (stereo partly drawn) [Example 252, N(3)-[S-(1-phenylethyl)]-1-(2,4-dichlorophenyl)-4,5,6,7-tetrahydro-1H-4,7-methano-indazole-3-carboxamide], at hCB1 [4], the “% Displacement Protocol II” value was determined as 74.52%. The “Per Se % Stimulation” value at CB1 [2] (GTPγS binding over basal, rat cerebellar membrane, tested at 300 nM) was 48.2%. On CB1 [2] (GTPγS binding, tested at 300 nM in presence of 1 μM WIN 55,212-2), the “% Inhibition” value was found to be 58.8%. Besides, the “% Displacement Protocol I” value at CB1 [3] (setting [11]) stood at 99.8%.
For `O=C(NCc1ccccc1)c1nn(-c2ccc(Cl)cc2Cl)c2c1C1CC3CC(C1)CC2C3` [Example 179, N(7)-Benzyl-5-(2′,4′-dichlorophenyl)-5,6-diazatetracyclo[7.3.1.1^3,11.0^4,8]tetradeca-4(8)-6-diene-7-carboxamide], on hCB1 [4], the “% Displacement Protocol II” value is recorded as 30.88%. In addition, the “% Displacement Protocol IV” value on hCB2 [5] is reported as 18.21%. Further, the “Per Se % Stimulation” value at CB1 [2] (setting [7]) worked out at 7.8%. The “% Inhibition” value at CB1 [2] (setting [8]) is 89.7%. Besides, the “% Displacement Protocol I” value on CB1 [3] (setting [11]) came out at 48%.
In the same order, the values of `O=C(NN1CCCCC1)c1nn(-c2ccccc2Cl)c2c1C1CC3CC(C1)CC2C3` [Example 184, N(7)-piperidino-5-(2′-chlorophenyl)-5,6-diazatetracyclo[7.3.1.1^3,11.0^4,8]tetradeca-4(8)-6-diene-7-carboxamide] are 3.24%, 8.76%, 9.5%, 75.9% and 41%.
For the molecule `O=C(NC1CCCCC1)c1nn(-c2ccc(Cl)cc2)c2c1C1CC3CC(C1)CC2C3` [Example 106, N(7)-Cyclohexyl-5-(4-chlorophenyl)-5,6-diazatetracyclo[7.3.1.1^3,11.0^4,8]tetradeca-4(8),6-diene-7-carboxamide], the melting point amounted to 162 °C. For the same molecule, the “hCB2 Agonism” value at hCB2 [6] (concentration not given) was 0%. Besides, the inhibition at 0.3 µM at hCB2 [5] (1 h, read-out: % Displacement Protocol IV) was determined as 75.1%. Also, the activation at 1 µM on CB1 [2] (1 h, GTPγS binding over basal, rat cerebellar membrane, tested at 1 uM, read-out: Per Se % Stimulation) is -10%. Also, the inhibition at 1 µM on CB1 [2] (GTPγS binding, tested at 1 uM in presence of 1 μM WIN 55,212-2, read-out: % Inhibition of WIN-55212-2 induced stimulation) was found to be 65.3%. The inhibition at CB1 [3] (setting [9]) came out at 78.6%.
For the molecule `O=C(NCc1ccccc1)c1nn(-c2ccccc2)c2c1C1CC3CC(C1)CC2C3` [Example 170, N(7)-Benzyl-5-phenyl-5,6-diazatetracyclo[7.3.1.1^3,11.0^4,8]tetradeca-4(8)-6-diene-7-carboxamide], the “% Displacement Protocol II” value at hCB1 [4] was 29.49%. The “% Displacement Protocol IV” value on hCB2 [5] stood at 27.16%. Further, the “Per Se % Stimulation” value on CB1 [2] (setting [7]) is 17.5%. In addition, the “% Inhibition” value at CB1 [2] (setting [8]) came out at 80.3%. The “% Displacement Protocol I” value at CB1 [3] (setting [11]) is on record as 40.0%.
In general, IC50 refers to the point on the concentration scale where inhibition reaches its midpoint. Consider `CC(C)(C)NC(=O)c1nn(-c2ccc(F)cc2F)c2c1C1CCC2(C)C1(C)C` (stereo not drawn) [Example 408, N(3)-tert-Butyl-1-(2,4-difluorophenyl)-7,8,8-trim ethyl-4,5,6,7-tetrahydro-1H-methano-indazole-3-carboxamide], for which the IC50 at hCB2 [6] (h-CB2/CHO cells, cAMP, read-out: hCB2 Agonism IC50) is 16.1 nM. In addition, the “% Displacement Protocol II” value at hCB1 [4] is reported as 24.93%. Moreover, at hCB2 [5], the “% Displacement Protocol IV” value amounted to 61.92%.
In turn, `CC(C)(C)c1ccc(NC(=O)c2nn(-c3ccc(Cl)cc3)c3c2C2CCC3C2)cc1` (stereo not drawn) [Example 219, N(3)-(4-tert-Butylphenyl)-1-(4-chlorophenyl)-4,5,6,7-tetrahydro-1H-4,7-methano-indazole-3-carboxamide] came in with a melting point of 76 to 78 °C. Moreover, on hCB1 [1], the inhibition at 10 µM came out at 33.4%. In addition, the inhibition on CB1 [3] (setting [10]) turned out to be 33.7%.
Regarding `O=C(NN(c1ccccc1)c1ccccc1)c1nn(-c2ccc(Cl)cc2)c2c1C1CCC2C1` (stereo not drawn) [Example 236], the “% Displacement Protocol II” value on hCB1 [4] is given as 55.25%. In addition, the “Per Se % Stimulation” value at CB1 [2] (setting [7]) is reported as 8.0%. The “% Inhibition” value on CB1 [2] (setting [8]) turned out to be 83.0%. Besides, at CB1 [3] (setting [11]), the “% Displacement Protocol I” value turned out to be 75.5%.
On to `CN(NC(=O)c1nn(-c2ccc(Cl)cc2Cl)c2c1C1CCC2c2ccccc21)c1ccc(Cl)cc1Cl` (stereo not drawn) [Example 505, N(12)-{N′-[(2,4-Dichlorophenyl)-N′-methyl]amino}-10-(2,4-dichlorophenyl)-10,11-diazatetracyclo[6.5.2.0^2,7.0^9,13]pentadeca-2,4,6,9(13),11-pentaene-12-carboxamide], for which the “% Displacement Protocol II” value at hCB1 [4] came out at 77.51%. Moreover, the “Per Se % Stimulation” value at CB1 [2] (setting [7]) turned out to be 15.6%. Also, the “% Inhibition” value on CB1 [2] (setting [8]) is 94.4%. At CB1 [3] (setting [11]), the “% Displacement Protocol I” value was determined as 90.6%.
